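A five-concentration, 48-hour dose response in 96-well plates underlies each endpoint, interpolated linearly between surrounding concentrations. GI50 is the concentration that inhibits growth by half. TGI: concentration producing complete growth inhibition.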
Tests used:
Assay in all cases: DTP human tumour cell line panel, 48 h
[1] = tested on: SK-MEL-28 melanoma
[2] = tested on: HCT-116 colon
[3] = tested on: SK-MEL-2 melanoma
[4] = tested on: SF-539 CNS
[5] = tested on: M14 melanoma
[6] = tested on: HOP-92 NSCLC
[7] = tested on: TK-10 renal
[8] = tested on: HS 578T breast
[9] = tested on: HCC-2998 colon
[10] = tested on: SW-620 colon
[11] = tested on: SNB-75 CNS
[12] = tested on: HT29 colon
[13] = tested on: EKVX NSCLC
[14] = tested on: MDA-MB-231 breast
[15] = tested on: SN12C renal
[16] = tested on: NCI-H460 lung
[17] = tested on: HOP-62 NSCLC
[18] = tested on: 786-0 renal
[19] = tested on: MOLT-4 leukemia
[20] = tested on: HL-60(TB) leukemia
[21] = tested on: DU-145 prostate
[22] = tested on: NCI/ADR-RES ovarian
[23] = tested on: K-562 leukemia
[24] = tested on: OVCAR-5 ovarian
[25] = tested on: MCF7 breast
[26] = tested on: LOX IMVI melanoma
[27] = tested on: SK-OV-3 ovarian
[28] = tested on: RXF 393 renal
[29] = tested on: COLO 205 colon
[30] = tested on: U251 CNS
[31] = tested on: SR leukemia
[32] = tested on: IGROV1 ovarian
[33] = tested on: ACHN renal
[34] = tested on: UO-31 renal
[35] = tested on: CAKI-1 renal
[36] = tested on: HCT-15 colon
[37] = tested on: SK-MEL-5 melanoma
[38] = tested on: UACC-62 melanoma
[39] = tested on: NCI-H226 lung
[40] = tested on: MDA-MB-468 breast
[41] = tested on: NCI-H522 lung
[42] = tested on: A498 renal
[43] = tested on: A549 NSCLC
[44] = tested on: OVCAR-3 ovarian
[45] = tested on: SF-295 CNS
[46] = tested on: OVCAR-8 ovarian
[47] = tested on: T-47D breast
[48] = tested on: BT-549 breast
[49] = tested on: MDA-MB-435
[50] = tested on: OVCAR-4 ovarian
[51] = tested on: UACC-257 melanoma
[52] = tested on: SNB-19 CNS
[53] = tested on: MALME-3M melanoma
[54] = tested on: SF-268 CNS
[55] = tested on: CCRF-CEM leukemia
[56] = tested on: RPMI-8226 leukemia
[57] = tested on: NCI-H23 lung
[58] = tested on: KM12 colon

CCN1CCN(Cc2ccc(C(=O)Nc3cccc(-c4cn(-c5ccc6oc(=O)ccc6c5)nn4)c3)cc2C(F)(F)F)CC1
GI50 [1]: 1.81 µM | TGI [1]: 3.29 µM | GI50 [2]: 1.82 µM | TGI [2]: 3.68 µM | GI50 [3]: 58.3 µM | TGI [3]: > 100 µM | GI50 [4]: 12.2 µM | TGI [4]: 24.6 µM | GI50 [5]: 2.46 µM | TGI [5]: 6.86 µM | GI50 [6]: 11.1 µM | TGI [6]: 39.8 µM | GI50 [7]: 19.9 µM | TGI [7]: 34.1 µM | GI50 [8]: 18.2 µM | TGI [8]: 67 µM | GI50 [9]: 2.52 µM | TGI [9]: 5.47 µM | GI50 [10]: 1.71 µM | TGI [10]: 3.41 µM | GI50 [11]: 12.2 µM | TGI [11]: 24.6 µM | GI50 [12]: 1.77 µM | TGI [12]: 3.72 µM | GI50 [13]: 3.81 µM | TGI [13]: 14.6 µM | GI50 [14]: 1.78 µM | TGI [14]: 3.2 µM | GI50 [15]: 14.3 µM | TGI [15]: 27.4 µM | GI50 [16]: 3.61 µM | TGI [16]: 12.6 µM | GI50 [17]: 16.4 µM | TGI [17]: 31.4 µM | GI50 [18]: 2.05 µM | TGI [18]: 4.05 µM | GI50 [19]: 2.88 µM | TGI [19]: 12.9 µM | GI50 [20]: 30.1 µM | TGI [20]: > 100 µM | GI50 [21]: 15.8 µM | TGI [21]: 29.2 µM | GI50 [22]: 1.82 µM | TGI [22]: 3.54 µM | GI50 [23]: 2.34 µM | TGI [23]: 7.26 µM | GI50 [24]: 16.2 µM | TGI [24]: 29.7 µM | GI50 [25]: 1.68 µM | TGI [25]: 3.2 µM | GI50 [26]: 1.69 µM | TGI [26]: 3.06 µM | GI50 [27]: 21.7 µM | TGI [27]: 79.4 µM | GI50 [28]: 1.77 µM | TGI [28]: 3.47 µM | GI50 [29]: > 100 µM | TGI [29]: > 100 µM | GI50 [30]: 1.91 µM | TGI [30]: 4.03 µM | GI50 [31]: 6.47 µM | TGI [31]: 52.6 µM | GI50 [32]: 10.5 µM | TGI [32]: 22.3 µM | GI50 [33]: 10.9 µM | TGI [33]: 22.9 µM | GI50 [34]: 10.6 µM | TGI [34]: 22.4 µM | GI50 [35]: 16.5 µM | TGI [35]: 39.7 µM | GI50 [36]: 1.78 µM | TGI [36]: 3.45 µM | GI50 [37]: 5.5 µM | TGI [37]: 18 µM | GI50 [38]: 12.3 µM | TGI [38]: 24.7 µM | GI50 [39]: 13.6 µM | TGI [39]: 27 µM | GI50 [40]: 12.3 µM | TGI [40]: 27.4 µM | GI50 [41]: 17.2 µM | TGI [41]: 30.9 µM | GI50 [42]: 29.1 µM | TGI [42]: > 100 µM | GI50 [43]: 1.79 µM | TGI [43]: 3.64 µM | GI50 [44]: 16.5 µM | TGI [44]: 30 µM | GI50 [45]: 14.8 µM | TGI [45]: 28 µM | GI50 [46]: 7.71 µM | TGI [46]: 20.3 µM | GI50 [47]: > 100 µM | TGI [47]: > 100 µM | GI50 [48]: > 100 µM | TGI [48]: > 100 µM | GI50 [49]: 1.76 µM | TGI [49]: 3.6 µM | GI50 [50]: 13.9 µM | TGI [50]: 27.6 µM | GI50 [51]: 19.2 µM | TGI [51]: 43.3 µM | GI50 [52]: 17.3 µM | TGI [52]: 31.1 µM | GI50 [53]: 1.6 µM | TGI [53]: 3 µM | GI50 [54]: 18.1 µM | TGI [54]: 45.6 µM | GI50 [55]: 2.23 µM | TGI [55]: 8.3 µM | GI50 [56]: 2.62 µM | TGI [56]: 12.2 µM | GI50 [57]: 1.79 µM | TGI [57]: 3.56 µM | GI50 [58]: 5.37 µM | TGI [58]: 17.6 µM
